How the values were obtained:
H358 lung cancer cells [1] = experiment: [3H]-thymidine incorporation (DNA synthesis) assay in H358 cells; assay type: cell-based
Description: (§1) (A) Structures of 1a, and the acetylated side chain of a lysine residue within the polypeptide chain of a protein targeted by the acetylating enzyme (R1 and R2 are the main chain elements on both sides of the lysyl residue). (B) [^3H]-thymidine incorporation into DNA of H358 cells pulsed for 6 hrs at three different time points after the addition of increasing concentrations of 1a, i.e., at 6-12 hrs (12 hr curve), at 18-24 hours (24 hr curve), or at 42-48 hrs (48 hr curve). Incorporation is represented as a percentage relative to control (untreated) cells. (C) Cell cycle analysis of propidium iodide-stained cells harvested at various times after addition of 50 μM 1a. % of cells in G1, S, and G2 represents the average of two independent profiles. (D) Western analysis of histone H3 lysine 9 acetylation, histone H3 lysine 56 acetylation, histone H3 lysine 9 methylation, and total histone H3, before “c” or at the indicated times after addition of 50 μM 1a. Each lane represents 60 μg cellular protein.
(§2) Control cells were left untreated. […] Control cells were left untreated.
Cells were either labeled immediately before treatment (starting DNA synthesis rate), or subjected to the indicated treatments and then pulsed on successive days until day 4. DNA synthesis is represented as the percent of starting DNA synthesis rate. Viability was determined for each treatment condition 24 hours post-start of treatment by the trypan blue exclusion assay, with percentages of viable cells indicated to the right of the graph.
H358 cells (2,000/well) in 96-well plates were treated with 1, 10 or 50 μM of spd-1a, spd-2a, spd-3a, spm3, or spm2 for 12 hours. Triplicate wells of cells were pulsed 6 hours with 0.5 μCi [^3H]-thymidine (NEN, Boston Mass.) post-start of drug treatment, and harvested onto filter paper using a Brandel Harvester and subjected to scintillation counting. Untreated cells were pulsed from 0-6 hrs to establish the initial rate of incorporation.
Cells were plated in 96-well plates (2000 cells per well to insure conditions for exponential growth for untreated cells over the time course of the experiment) and exposed to the following treatments: 1a (50 μM); camptothecin (Sigma, St Louis, Mo. 5 nM, 18 hours); cisplatin (Platinol, obtained through local pharmacies, 2 μM, 1 hour 15 minutes), 5-fluorouracil (5FU, Adrucil™, obtained through local pharmacies, 2 μM, 1 hour 15 minutes), Taxotere (provided by the late Dr. Pierre Potier, 5 nM, 18 hours). UVC treatment (40 J/m^2) using a Stratalinker™, Stratagene, La Jolla, Calif.) was carried using medium lacking phenol red. At 0-6 hr, 18-24 hr (day 1), 42-48 hr […], 66-72 hr (day 3), and 90-96 hr (day 4) post-start of treatment, triplicate wells were incubated with 0.5 μCi [^3H]-thymidine (NEN, Boston Mass.), harvested onto filter paper, and subjected to scintillation counting. Trypan blue exclusion assays for cell membrane integrity were carried out as known in the art.
The present inventors used 96-well viability assays as described in Saadatmandi et al (Cancer Gene Therapy (2002) 9:[…]) to examine the effect of 1a on DNA synthesis in H358 cells, as well as the combined effects of 1a and chemotherapeutic agents. H358 cells were plated in 96-well plates at 3000 cells per well. […]

MCF7 breast cancer cells = conditions: 5 nM camptothecin alone, 18 hour
Description: Viability was measured 3 days after the start of treatment and is expressed as a percentage of control (untreated) cell viability.
Each point is average of triplicates. […]
The present inventors carried out 96-well viability assays as we have previously described (Saadatmandi et al, Cancer Gene Therapy (2002) 9:830-9), in which MCF7 breast cancer cells were plated at 3000 cells per well. After overnight attachment, triplicate wells were treated with increasing doses of inhibitor 1a. Control wells were left untreated. After 3 days, cell viability was measured by the MTS assay, which measures the bioconversion of an uncolored substrate to a colored formazan derivative, and is proportional to cell number.

γ-H2A.X in H358 cells = experiment: γ-H2A.X Western / double strand break repair assay; assay type: cell-based; conditions: 18 hours post-start; low doses as in FIG. 3
Description: Also shown are controls for no treatment (“c” minus 1a) or treatment with 1a only (“c” plus 1a). Each lane represents 60 μg protein. […] Each lane represents 60 μg protein.
To measure DSB repair, cells were incubated for 1 hour with 10 μM camptothecin to induce DSBs, followed by incubation in the presence or absence of 50 μM 1a. At fixed times, histones were prepared by extraction in 0.2M H2SO4 as described previously and 50 μg extract was analyzed by 12% SDS-PAGE followed Western analysis as described previously, using rabbit polyclonal anti-γ-H2A.X [phosphor ser 139] (Novus Biologicals, Littleton, Colo.) or anti-H3 (Upstate Biotechnology, Inc, Lake Placid, N.Y.). Band intensities were quantitated digitally. To study acetylation of γ-H2A.X, we carried out co-immunoprecipitation analysis using 50 μg extract protein in immunoprecipitation buffer (10 mM sodium phosphate pH 7, 0.15 M NaCl, 0.1% SDS, 1% NP40, 1% sodium deoxycholate, aprotinin, 1 mM PMSF, complete protease inhibitors (Roche) using immobilized anti-acetyl-lysine (Millipore, Temecula, Calif.) in the immunoprecipitation step. The immunoprecipitated material was then analyzed as for Western analysis using anti γ-H2A.X.

[2] = test system: GT41F human skin fibroblast cells; experiment: [3H]-thymidine incorporation in normal fibroblasts; assay type: cell-based; conditions: 50 μM 1a alone or 5 nM camptothecin alone
Source text: Cells were either labeled immediately before treatment (starting DNA synthesis rate), or subjected to the indicated treatments and then pulsed on successive days until day 4. DNA synthesis is represented as the percent of starting DNA synthesis rate.
The present inventors used a 96-well viability assays as described in Saadatmandi et al (Cancer Gene Therapy (2002) 9:930-9) to examine the effect of the spermidine-CoA inhibitor disclosed previously on DNA synthesis in normal GT41F human skin fibroblast cells, as well as its combined effect with camptothecin. GT41F cells were plated in 96-well plates at 3000 cells per well. […] Following the 6-hour labeling, cells were harvested and incorporation of [^3H]-thymidine was determined by scintillation counting.

[3] = test system: γ-H2A.X in DU145 prostate cancer cells; experiment: γ-H2A.X immunofluorescence in DU145 cells; assay type: cell-based; conditions: 5 nM camptothecin alone, 8 hours
Source text: The immunofluorescence images on the left and right sides of the middle scheme illustrate this visually. […] Cells were fixed and stained with a rabbit antibody to the histone variant, γ-H2A.X, a marker for DNA double stranded breaks, followed by staining with a fluorescein (FITC)-tagged goat anti rabbit secondary antibody. Nuclei were stained with Hoescht 33345.

[4] = test system: DU145 prostate cancer cells; experiment: Viability assay, DU145; assay type: cell-based; conditions: 5 nM camptothecin or 10 μM 2a
Description: (§3) Cells were plated in 96-well plates at 2000 cells per well and treated with the indicated doses of spd-3a. Cell viability was measured by the MTS assay 3 days later.

BT20 TNBC cells = experiment: 3-day viability assay, BT20; assay type: cell-based; conditions: 5 nM
Source text: (§4) Date of exp: Jul. […] Date of exp: Sep.
The effect of spd-2a on the BT20 breast cancer cell line derived form a spontaneous TNBC with wild-type BrCa1 was examined. […] Having previously established that spd-2a is a therapy sensitizer, the present inventors then examined the combined effects of spd-2a and camptothecin (the basis for the chemotherapeutic drug, Irinotecan).

[5] = test system: histone H3 lysine 9 acetylation in H358 cells; experiment: Western analysis of histone H3 acetylation/methylation in H358 cells; assay type: cell-based; conditions: 50 μM, 12 hours
Description: as §1
Each lane represents 175 μg cell lysate protein.
One 6 cm culture dish of H358 cells per treatment was used. Cells were treated with 50 μM spm-2, spm-3, or spd-3a for 12 hours. Histones were extracted from cells in 0.2M H2SO4 (as described in Furuta, T., et al (2003) J. Biol. Chem. 278: 20303-20312), followed by SDS-PAGE and Western blotting. Blots were probed with anti-acetyl histone H3-lysine 9 (Upstate Biotechnology, Inc.)
Cells were lysed by adding 1 mL of 0.2 M H2SO4. […]
One 10-cm plate of H358 lung cancer cells (about 2×10^6 cells), grown in DMEM+10% Fetal bovine serum as described in reference, were treated for 24 hours with 50 μM 1a inhibitor. […] Treated cells and untreated (control) cells were harvested by lysing in buffer containing 10 mM Hepes pH 7.5, 100 mM NaCl, 300 mM sucrose, 3 mM MgCl2, 1 mM EDTA, 1 mM DTT, 0.5% Triton X-100, 1 mM PMSF, protease inhibitor pellet (Roche) and analyzed on 10% SDS-PAGE gels, followed by Western immunoblot analysis of total histone H3, methylated histone H3 (methylated on lysine 9), and acetylated histone H3 (acetylated on lysine 9). […]

H358 lung cancer cells [6] = assay type: cell-based; conditions: CPT 5 nM 18 hours + 3a
Description: as §2
Cells were given fresh inhibitor on the first, second, and third days of treatment and viability was measured on the 4th day (i.e. 3 days post start of treatment). […]
(A) Structure of Spd-3a. (B) Western analysis of histone H3K9-acetylation and total histone H3, measured in control, untreated H358 lung cancer cells “C” or in H358 cells incubated 12 hours in the presence of 50 μM Spd-2a or Spd-3a. Each lane represents 60 μg cellular protein. (C) [3H]-thymidine incorporation (counts per minute) into DNA of H358 cells during a 6 hour pulse beginning at 42 hours post-start of treatment. Treatments were as follows (bars 1-6 left to right): (1) control: no treatment; (2) CPT alone: 5 nM 18 hours; (3) 3a alone: 50 μM; (4-6) 3a+CPT: CPT (5 nm, 18 hours)+3a at indicated dose. After 18 hours, CPT was removed and medium was replaced with fresh medium containing Spd-3a at the indicated dose. Each bar represents the average of triplicates. (D) 3-day 96-well viability assay of H358 cells grown in the presence of increasing amounts of Spd-2a or Spd-3a, with or without CPT (5 nM 18 hours). […] Each data point represents the average of three wells.
as §4, §3
DLD-1 cells or H358 cells were plated in 96-well plates at 2000 cells per well and treated with the indicated doses of (A) spm-3 or (B) spm-2. (C) Cell viability was measured by the MTS assay 3 days later. Similar experiment using GT41 fibroblasts with spm2 or spm 3. Each assay point represents an average of duplicates. […]

[7] = In vivo toxicity in nude mice (tail vein injection); conditions: 100 μl of 5 mM, approximately 10 mg/kg, twice per week for 3 weeks, 4 mice
Description: They injected a second set of 4 mice with 100 μl of spd-3a (5 mM, approximately 10 mg/kg, or about 0.25 mM initial blood concentration), twice per week for 3 weeks.

[8] = 96-well MTS viability assay, GT41F fibroblasts; assay type: cell-based, human; conditions: human, GT41F skin fibroblasts, spd-3a 1 μM, single agent, read-out: viability retained
Description: as §3
DLD-1 cells or H358 cells were plated in 96-well plates at 2000 cells per well and treated with the indicated doses of (A) spm-3 or (B) spm-2. (C) Cell viability was measured by the MTS assay 3 days later. Similar experiment using GT41 fibroblasts with spm2 or spm 3. Each assay point represents an average of duplicates.

[9] = test system: endogenous HATs associated with solubilized chromatin; conditions: Parello et al. 1990; cited from earlier work

SMILES: CC[C@@]1(O)C(=O)OCc2c1cc1n(c2=O)Cc2cc3ccccc3nc2-1 [camptothecin]
- effect of camptothecin alone on [3H]-thymidine incorporation (H358 lung cancer cells [1]; 5 nM alone (18 or 24 hours)): no detectable effect
- 2-day cell viability relative to untreated cells (MCF7 breast cancer cells): no effect
- γ-H2A.X level, single agent (γ-H2A.X in H358 cells): weakly detectable
- effect on incorporation of [3H]-thymidine, single agent [2]: virtually no effect
- DNA damage (γ-H2A.X staining) [3]: minimal damage
- effect of the dose on cell viability, single agent [4]: minimal effects on cell viability
- effect of camptothecin by itself (BT20 TNBC cells): no effect

SMILES: CC(=O)NCCSCC(=O)NCCCNCCCCN [3a]
- inhibition of DNA synthesis (H358 lung cancer cells [1]; 1, 10 or 50 μM, 12 hours): inhibit DNA synthesis
- suppression of DNA synthesis in combination with camptothecin (H358 lung cancer cells [1]; CPT 5 nM 18 hours + 3a, pulse at 42 hours): effective
- histone H3K9 acetylation (Western) [5]: nearly complete ablation
- histone H3K9 acetylation (Western) ([5]; listed as spd-3a): suppress histone acetylation
- suppression of 3-day cell viability in combination with camptothecin (H358 lung cancer cells [6]): effective
- signs of toxicity [7]: no signs of distress or illness
- viability at 3 days, 1 µM [8]: ~60%
- inhibitory effect on endogenous HATs, compared with Spd-2a [9]: lower inhibitory effect than Spd-2a
